Reference: patent publication US20020137929A1, “1 - (3-heterocyclylphenyl) isothiourea, -isourea, -guanidine and -amidine herbicidal agents” (Intellectual Property Department, BASF Aktiengesellschaft, priority 1998, published 2002)

Key:
[1] = test system: GLXMAW (Soybean, Williams); experiment: Postemergence herbicidal evaluation; type: in vivo, Glycine max, (L.) Merr. cv Williams
Procedure, shortened: (§1)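 Visual 0–9 rating versus control (stand, vigor, malformation, size, chlorosis, overall appearance), taken four to five weeks post-spray. Two-week-old seedlings received roughly 0.0156–0.500 kg/ha active in acetone/water (50/50) with 0.5% TWEEN 20 via nozzle at 40 psi.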

CYPIR (Rice Flatsedge) = experiment: Postemergence weed control under flooded paddy conditions; type: in vivo, Cyperus iria; settings: postemergence weeds, 3-4 weeks after treatment
Procedure, shortened: (§2)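 Weeds 3 to 5 cm tall and rice seedlings at the 1.5 to 2.5 leaf stage were flooded, with water held 1.5 to 3 cm above the soil. Compounds in 50/50 v/v aqueous/acetone went into the flood water at about 0.0313 to 0.500 kg/ha. Visual 0-9 ratings versus control were made 3 to 4 weeks later.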

[2] = test system: ECHORC (Watergrass (Calif.)); experiment: Preemergence weed control under flooded paddy conditions; type: in vivo, Echinochloa oryzoides; settings: rated 3-4 weeks after treatment
Procedure, shortened: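 Seeds or propagules sown in silt loam kept flooded 1.5-3 cm; compounds in 50/50 acetone/water pipetted into flood water at about 0.0313 to 0.500 kg/ha. Greenhouse; visual 0-9 rating versus untreated control 3-4 weeks after treatment.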

SETVI (Foxtail, Green) = experiment: Postemergence herbicidal evaluation; type: in vivo, Setaria viridis
Procedure, shortened: as §1

ZEAMX (Corn, Field) = experiment: Postemergence herbicidal evaluation; type: in vivo, Zea mays
Procedure, shortened: as §1

ABUTH (Velvetleaf) [3] = experiment: Preemergence herbicidal evaluation; type: in vivo, Abutilon theophrasti; settings: rated 4-5 weeks after treatment
Procedure, shortened: (§3)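 Seeds were planted in potting soil in cups, then sprayed preemergence with the test compound in aqueous acetone at about 0.0156 to 0.500 kg per hectare. Cups were kept under greenhouse conditions and visually rated 4–5 weeks after treatment on a 0–9 scale against an untreated control.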

CYPSE (Flatsedge) = experiment: Preemergence weed control under flooded paddy conditions; type: in vivo, Cyperus serotinus; settings: rated 3-4 weeks after treatment
Procedure, shortened: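 Values are visual 0-9 scores against a control for a preemergence application into paddy flood water at about 0.0313 to 0.500 kg/ha. Greenhouse duration was three to four weeks.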

CASOB (Sicklepod) = experiment: Preemergence herbicidal evaluation; type: in vivo, Cassia obtusifolia; settings: rated 4-5 weeks after treatment
Procedure, shortened: as §3

ECHCG (Barnyardgrass) = experiment: Preemergence herbicidal evaluation; type: in vivo, Echinochloa crus-galli; settings: rated 4-5 weeks after treatment
Procedure, shortened: as §3

ABUTH (Velvetleaf) [4] = experiment: Postemergence herbicidal evaluation; type: in vivo, Abutilon theophrasti
Procedure, shortened: as §1

[5] = test system: IPOHE (Morningglory, Ivyleaf); experiment: Preemergence herbicidal evaluation; type: in vivo, Ipomoea hederacea; settings: rated 4-5 weeks after treatment
Procedure, shortened: as §3

AMBEL (Ragweed, Common) = experiment: Preemergence herbicidal evaluation; type: in vivo, Ambrosia artemisifolia; settings: rated 4-5 weeks after treatment
Procedure, shortened: as §3

[6] = test system: ECHORC (Watergrass (Calif.)); experiment: Postemergence weed control under flooded paddy conditions; type: in vivo, Echinochloa oryzoides; settings: postemergence weeds, 3-4 weeks after treatment
Procedure, shortened: as §2

[7] = test system: IPOHE (Morningglory, Ivyleaf); experiment: Postemergence herbicidal evaluation; type: in vivo, Ipomoea hederacea
Procedure, shortened: as §1

Structure (SMILES): Cn1c(C(F)(F)F)cc(=O)n(-c2cc(N=C3SCC(=O)N3CCC(=O)O)c(Cl)cc2F)c1=O [Compound 30, 2-{{2-Chloro-5-[3,6-dihydro-3-methyl-2,6-dioxo-4-(trifluoromethyl)-1(2H)-pyrimidinyl]-4-fluorophenyl}imino}-4-oxo-3-thiazolidinepropionic acid]
- Postemergence herbicidal rating GLXMAW ([1]; Rate 0.0158 kg/ha): 6.5
- Postemergence herbicidal rating GLXMAW ([1]; Rate 0.0315 kg/ha): 6.5
- Postemergence herbicidal rating GLXMAW ([1]; Rate 0.0630 kg/ha): 6.5
- Herbicidal rating CYPIR (CYPIR (Rice Flatsedge); rate 0.1250 kg/ha): 2.0
- Herbicidal rating CYPIR (CYPIR (Rice Flatsedge); rate 0.2500 kg/ha): 4.5
- Herbicidal rating ECHORC ([2]; 0.1250 kg/ha): 0.0
- Herbicidal rating ECHORC ([2]; 0.2500 kg/ha): 0.0
- Postemergence herbicidal rating SETVI (SETVI (Foxtail, Green); Rate 0.0158 kg/ha): 0.0
- Postemergence herbicidal rating SETVI (SETVI (Foxtail, Green); Rate 0.0315 kg/ha): 0.0
- Postemergence herbicidal rating SETVI (SETVI (Foxtail, Green); Rate 0.0630 kg/ha): 0.0
- Postemergence herbicidal rating ZEAMX (ZEAMX (Corn, Field); Rate 0.0158 kg/ha): 3.0
- Postemergence herbicidal rating ZEAMX (ZEAMX (Corn, Field); Rate 0.0315 kg/ha): 4.5
- Postemergence herbicidal rating ZEAMX (ZEAMX (Corn, Field); Rate 0.0630 kg/ha): 6.0
- Preemergence herbicidal rating ABUTH (ABUTH (Velvetleaf) [3]; rate 0.0313 kg/ha): 9.0
- Preemergence herbicidal rating ABUTH (ABUTH (Velvetleaf) [3]; rate 0.0625 kg/ha): 9.0
- Preemergence herbicidal rating ABUTH (ABUTH (Velvetleaf) [3]; rate 0.1250 kg/ha): 9.0
- Preemergence herbicidal rating ABUTH (ABUTH (Velvetleaf) [3]; rate 0.2500 kg/ha): 9.0
- Herbicidal rating CYPSE (CYPSE (Flatsedge); 0.1250 kg/ha): 0.0
- Herbicidal rating CYPSE (CYPSE (Flatsedge); 0.2500 kg/ha): 0.0
- Preemergence herbicidal rating CASOB (CASOB (Sicklepod); rate 0.0313 kg/ha): 0.0
- Preemergence herbicidal rating CASOB (CASOB (Sicklepod); rate 0.0625 kg/ha): 0.0
- Preemergence herbicidal rating CASOB (CASOB (Sicklepod); rate 0.1250 kg/ha): 1.0
- Preemergence herbicidal rating CASOB (CASOB (Sicklepod); rate 0.2500 kg/ha): 1.0
- Preemergence herbicidal rating ECHCG (ECHCG (Barnyardgrass); rate 0.0313 kg/ha): 0.0
- Preemergence herbicidal rating ECHCG (ECHCG (Barnyardgrass); rate 0.0625 kg/ha): 0.0
- Preemergence herbicidal rating ECHCG (ECHCG (Barnyardgrass); rate 0.1250 kg/ha): 0.0
- Preemergence herbicidal rating ECHCG (ECHCG (Barnyardgrass); rate 0.2500 kg/ha): 0.0
- Postemergence herbicidal rating ABUTH (ABUTH (Velvetleaf) [4]; Rate 0.0158 kg/ha): 3.0
- Postemergence herbicidal rating ABUTH (ABUTH (Velvetleaf) [4]; Rate 0.0315 kg/ha): 9.0
- Postemergence herbicidal rating ABUTH (ABUTH (Velvetleaf) [4]; Rate 0.0630 kg/ha): 9.0
- Preemergence herbicidal rating IPOHE ([5]; rate 0.0313 kg/ha): 0.0
- Preemergence herbicidal rating IPOHE ([5]; rate 0.0625 kg/ha): 0.0
- Preemergence herbicidal rating IPOHE ([5]; rate 0.1250 kg/ha): 1.0
- Preemergence herbicidal rating IPOHE ([5]; rate 0.2500 kg/ha): 2.0
- Preemergence herbicidal rating AMBEL (AMBEL (Ragweed, Common); rate 0.0313 kg/ha): 0.0
- Preemergence herbicidal rating AMBEL (AMBEL (Ragweed, Common); rate 0.0625 kg/ha): 1.0
- Preemergence herbicidal rating AMBEL (AMBEL (Ragweed, Common); rate 0.1250 kg/ha): 5.0
- Preemergence herbicidal rating AMBEL (AMBEL (Ragweed, Common); rate 0.2500 kg/ha): 6.0
- Herbicidal rating ECHORC ([6]; rate 0.1250 kg/ha): 0.0
- Herbicidal rating ECHORC ([6]; rate 0.2500 kg/ha): 0.0
- Postemergence herbicidal rating IPOHE ([7]; Rate 0.0158 kg/ha): 0.0
- Postemergence herbicidal rating IPOHE ([7]; Rate 0.0315 kg/ha): 0.0
- Postemergence herbicidal rating IPOHE ([7]; Rate 0.0630 kg/ha): 9.0

Structure (SMILES): CCOC(=O)CN1C(=O)C[S+]([O-])/C1=N/c1cc(-n2c(=O)cc(C(F)(F)F)n(C)c2=O)c(F)cc1Cl (centres unmarked) [Compound 45, 2-{{2-Chloro-5-[3,6-dihydro-3-methyl-2,6-dioxo-4-(trifluoromethyl)-1(2H)-pyrimidinyl]-4-fluoro-phenyl}imino}-4-oxo-3-thiazolidineacetic acid, ethyl ester, 1-oxide]
- Postemergence herbicidal rating GLXMAW ([1]; Rate 0.0156 kg/ha): 5.5
- Postemergence herbicidal rating GLXMAW ([1]; Rate 0.0313 kg/ha): 6.5
- Postemergence herbicidal rating GLXMAW ([1]; Rate 0.0625 kg/ha): 7.0
- Herbicidal rating CYPIR (CYPIR (Rice Flatsedge); rate 0.0313 kg/ha): 0.0
- Herbicidal rating CYPIR (CYPIR (Rice Flatsedge); rate 0.0625 kg/ha): 3.0
- Herbicidal rating CYPIR (CYPIR (Rice Flatsedge); rate 0.1250 kg/ha): 7.0
- Herbicidal rating CYPIR (CYPIR (Rice Flatsedge); rate 0.2500 kg/ha): 7.0
- Herbicidal rating ECHORC ([2]; 0.0313 kg/ha): 3.0
- Herbicidal rating ECHORC ([2]; 0.0625 kg/ha): 4.0
- Herbicidal rating ECHORC ([2]; 0.1250 kg/ha): 7.0
- Herbicidal rating ECHORC ([2]; 0.2500 kg/ha): 7.0
- Postemergence herbicidal rating SETVI (SETVI (Foxtail, Green); Rate 0.0156 kg/ha): 0.0
- Postemergence herbicidal rating SETVI (SETVI (Foxtail, Green); Rate 0.0313 kg/ha): 0.0
- Postemergence herbicidal rating SETVI (SETVI (Foxtail, Green); Rate 0.0625 kg/ha): 2.0
- Postemergence herbicidal rating ZEAMX (ZEAMX (Corn, Field); Rate 0.0156 kg/ha): 4.5
- Postemergence herbicidal rating ZEAMX (ZEAMX (Corn, Field); Rate 0.0313 kg/ha): 5.0
- Postemergence herbicidal rating ZEAMX (ZEAMX (Corn, Field); Rate 0.0625 kg/ha): 5.5
- Preemergence herbicidal rating ABUTH (ABUTH (Velvetleaf) [3]; rate 0.0156 kg/ha): 0.0
- Preemergence herbicidal rating ABUTH (ABUTH (Velvetleaf) [3]; rate 0.0313 kg/ha): 9.0
- Preemergence herbicidal rating ABUTH (ABUTH (Velvetleaf) [3]; rate 0.0625 kg/ha): 9.0
- Preemergence herbicidal rating ABUTH (ABUTH (Velvetleaf) [3]; rate 0.1250 kg/ha): 9.0
- Preemergence herbicidal rating ABUTH (ABUTH (Velvetleaf) [3]; rate 0.2500 kg/ha): 9.0
- Herbicidal rating CYPSE (CYPSE (Flatsedge); 0.0313 kg/ha): 0.0
- Herbicidal rating CYPSE (CYPSE (Flatsedge); 0.0625 kg/ha): 0.0
- Herbicidal rating CYPSE (CYPSE (Flatsedge); 0.2500 kg/ha): 0.0
- Preemergence herbicidal rating CASOB (CASOB (Sicklepod); rate 0.0156 kg/ha): 0.0
- Preemergence herbicidal rating CASOB (CASOB (Sicklepod); rate 0.0313 kg/ha): 0.0
- Preemergence herbicidal rating CASOB (CASOB (Sicklepod); rate 0.0625 kg/ha): 0.0
- Preemergence herbicidal rating CASOB (CASOB (Sicklepod); rate 0.1250 kg/ha): 0.0
- Preemergence herbicidal rating CASOB (CASOB (Sicklepod); rate 0.2500 kg/ha): 0.0
- Preemergence herbicidal rating ECHCG (ECHCG (Barnyardgrass); rate 0.0156 kg/ha): 0.0
- Preemergence herbicidal rating ECHCG (ECHCG (Barnyardgrass); rate 0.0313 kg/ha): 0.0
- Preemergence herbicidal rating ECHCG (ECHCG (Barnyardgrass); rate 0.0625 kg/ha): 0.0
- Preemergence herbicidal rating ECHCG (ECHCG (Barnyardgrass); rate 0.1250 kg/ha): 0.0
- Preemergence herbicidal rating ECHCG (ECHCG (Barnyardgrass); rate 0.2500 kg/ha): 0.0
- Postemergence herbicidal rating ABUTH (ABUTH (Velvetleaf) [4]; Rate 0.0156 kg/ha): 9.0
- Postemergence herbicidal rating ABUTH (ABUTH (Velvetleaf) [4]; Rate 0.0313 kg/ha): 9.0
- Postemergence herbicidal rating ABUTH (ABUTH (Velvetleaf) [4]; Rate 0.0625 kg/ha): 9.0
- Preemergence herbicidal rating IPOHE ([5]; rate 0.0156 kg/ha): 0.0
- Preemergence herbicidal rating IPOHE ([5]; rate 0.0313 kg/ha): 0.0
- Preemergence herbicidal rating IPOHE ([5]; rate 0.0625 kg/ha): 0.0
- Preemergence herbicidal rating IPOHE ([5]; rate 0.1250 kg/ha): 0.0
- Preemergence herbicidal rating IPOHE ([5]; rate 0.2500 kg/ha): 1.0
- Preemergence herbicidal rating AMBEL (AMBEL (Ragweed, Common); rate 0.0156 kg/ha): 0.0
- Preemergence herbicidal rating AMBEL (AMBEL (Ragweed, Common); rate 0.0313 kg/ha): 0.0
- Preemergence herbicidal rating AMBEL (AMBEL (Ragweed, Common); rate 0.0625 kg/ha): 0.0
- Preemergence herbicidal rating AMBEL (AMBEL (Ragweed, Common); rate 0.1250 kg/ha): 0.0
- Preemergence herbicidal rating AMBEL (AMBEL (Ragweed, Common); rate 0.2500 kg/ha): 2.0
- Herbicidal rating ECHORC ([6]; rate 0.0313 kg/ha): 3.0
- Herbicidal rating ECHORC ([6]; rate 0.0625 kg/ha): 4.0
- Herbicidal rating ECHORC ([6]; rate 0.1250 kg/ha): 7.0
- Herbicidal rating ECHORC ([6]; rate 0.2500 kg/ha): 7.0
- Postemergence herbicidal rating IPOHE ([7]; Rate 0.0156 kg/ha): 9.0
- Postemergence herbicidal rating IPOHE ([7]; Rate 0.0313 kg/ha): 9.0
- Postemergence herbicidal rating IPOHE ([7]; Rate 0.0625 kg/ha): 9.0
